Measured values published in PubChem BioAssay AID328 (DTP/NCI, 2004).
“And” between values parts separate entries of the source, which are not always exact repeats. Identical values can stand only once. Toxic doses and inconclusive results are not listed.

Tested on: BDF1 mice, P388 leukemia ip, median survival T/C
Test: NCI In Vivo Anticancer Drug Screen. Data for tumor model P388 Leukemia (intraperitoneal) in B6D2F1 (BDF1) mice
Conditions: endpoint: median survival time, higher = longer survival
Method in brief: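 Antitumour effect was judged in vivo: survival in drug-treated mice, normalised to that of vehicle-dosed controls, gives the reported T/C.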

[1] = dose: 100.0 mg/kg/injection, schedule: Q04DX003 (ip), vehicle: saline with Tween-80
[2] = dose: 200.0 mg/kg/injection, schedule: Q04DX003 (ip), vehicle: saline with Tween-80
[3] = dose: 400.0 mg/kg/injection, schedule: Q04DX003 (ip), vehicle: saline with Tween-80
[4] = dose: 100.0 mg/kg/injection, schedule: Q01DX009 (ip), vehicle: saline with Tween-80
[5] = dose: 200.0 mg/kg/injection, schedule: Q01DX009 (ip), vehicle: saline with Tween-80
[6] = dose: 400.0 mg/kg/injection, schedule: Q01DX009 (ip), vehicle: saline with Tween-80
[7] = dose: 25.0 mg/kg/injection, schedule: Q01DX009 (ip), vehicle: saline
[8] = dose: 50.0 mg/kg/injection, schedule: Q01DX009 (ip), vehicle: saline
[9] = dose: 12.5 mg/kg/injection, schedule: Q01DX009 (ip), vehicle: Klucel (hydroxypropylcellulose) (HPC)
[10] = dose: 25.0 mg/kg/injection, schedule: Q01DX009 (ip), vehicle: Klucel (hydroxypropylcellulose) (HPC)
[11] = dose: 50.0 mg/kg/injection, schedule: Q01DX009 (ip), vehicle: Klucel (hydroxypropylcellulose) (HPC)
[12] = dose: 100.0 mg/kg/injection, schedule: Q01DX009 (ip), vehicle: saline
[13] = dose: 50.0 mg/kg/injection, schedule: Q01DX009 (ip), vehicle: saline with Tween-80
[14] = dose: 100.0 mg/kg/injection, schedule: Q01DX009 (ip), vehicle: Klucel (hydroxypropylcellulose) (HPC)
[15] = dose: 100.0 mg/kg/injection, schedule: Q04DX003 (ip), vehicle: Klucel (hydroxypropylcellulose) (HPC)
[16] = dose: 200.0 mg/kg/injection, schedule: Q01DX009 (ip), vehicle: Klucel (hydroxypropylcellulose) (HPC)
[17] = dose: 200.0 mg/kg/injection, schedule: Q04DX003 (ip), vehicle: Klucel (hydroxypropylcellulose) (HPC)

For `C/C=C1\C(=O)OC23C=CC4C(C(=O)OC)C(O)OC(OC12)C43` (configuration not stated), the T/C (dose: 0.04 mg/kg/injection, schedule: Q01DX009 (ip), vehicle: saline) was 95 % of control, the T/C (dose: 0.2 mg/kg/injection, schedule: Q01DX009 (ip), vehicle: saline) was 100 % of control and the T/C (dose: 1.0 mg/kg/injection, schedule: Q01DX009 (ip), vehicle: saline + alcohol) was 110 % of control.
For `CC(C)CC(Br)C(=O)NC(CC(C)C)C(=O)O` (configuration not stated), the T/C [1] was 104 % of control, the T/C [2] was 100 % of control and the T/C [3] was 109 % of control.
`CCCCCCCCCCCCCCCC(=O)N(c1ccc(N)cc1)C(C)CCCN(CC)CC` (configuration not stated) was tested, and the T/C [4] was 89 % of control, the T/C [1] was 90 % of control and the T/C [5] was 98 % of control. For the same molecule, the T/C [2] was 90 % of control, the T/C [6] was 100 % of control and the T/C [3] was 90 % of control.
`Cc1cc(NC(=O)Nc2ccc(C3=NCCN3)cc2)ccc1NC(=O)Nc1ccc(C2=NCCN2)cc1` was tested, and the T/C [4] was 122 % of control and the T/C [6] was 159 % of control.
With `CCCCCC(CN(C)C)C(O)/C=C/c1ccccc1Cl` (configuration not stated) the T/C (dose: 3.12 mg/kg/injection, schedule: Q01DX009 (ip), vehicle: saline) was 110 % of control, the T/C (dose: 6.25 mg/kg/injection, schedule: Q01DX009 (ip), vehicle: saline) was 100 % of control and the T/C (dose: 12.5 mg/kg/injection, schedule: Q01DX009 (ip), vehicle: saline) was 105 % of control. For the same molecule, the T/C [7] was 107 % of control and the T/C [8] was 117 % of control.
For `ClCC#Cc1ccccc1`, the T/C [9] was 109 % of control, the T/C [10] was 86 % of control and the T/C [11] was 100 % of control.
For `CC(C)CSC(C)C`, the T/C [7] was 110 % of control, the T/C [8] was 110 % of control and the T/C [12] was 110 % of control.
For `CC(C)COC(=O)CN(CC(=O)OCC(C)C)c1ccccc1`, the T/C [4] was 95 % of control, the T/C [5] was 100 % of control and the T/C [6] was 110 % of control.
With `CCc1c(-c2ccccc2)[nH]c2ccccc12` the T/C [13] was 115 % of control, the T/C [4] was 113 % of control and the T/C [5] was 123 % of control.
In the case of `CN(C)c1ccc(C=O)cc1Br`, the T/C [11] is reported as 95 % of control, the T/C [14] is reported as 95 % of control and the T/C [15] is reported as 100 % of control. For the same molecule, the T/C [16] was 100 % of control, the T/C [17] was 100 % of control and the T/C (dose: 400.0 mg/kg/injection, schedule: Q04DX003 (ip), vehicle: Klucel (hydroxypropylcellulose) (HPC)) was 100 % of control.
`COc1cc(/C=N\NC(=O)OC(C)(C)C)cc(OC)c1OC` was tested, and the T/C [13] was 118 % of control, the T/C [4] was 113 % of control and the T/C [5] was 86 % of control.
In the case of `CCC[CH2][Sn](=[S])[CH2]CCC`, the T/C (dose: 0.59 mg/kg/injection, schedule: Q01DX009 (ip), vehicle: other) is reported as 111 % of control, the T/C (dose: 1.33 mg/kg/injection, schedule: Q01DX009 (ip), vehicle: other) is reported as 115 % of control and the T/C (dose: 1.56 mg/kg/injection, schedule: Q04DX003 (ip), vehicle: other) is reported as 109 % of control. The T/C (dose: 2.66 mg/kg/injection, schedule: Q04DX003 (ip), vehicle: other) was 109 % of control, the T/C (dose: 3.13 mg/kg/injection, schedule: Q04DX003 (ip), vehicle: other) was 116 % of control and the T/C (dose: 6.25 mg/kg/injection, schedule: Q04DX003 (ip), vehicle: other) was 156 % of control. The T/C (dose: 200.0 mg/kg/injection, schedule: Q01DX010 (ip), vehicle: carboxymethylcellulose (CMC)) was 110 % of control.
`CNC(=O)N/N=C/c1ccccc1` was tested, and the T/C (dose: 75.0 mg/kg/injection, schedule: Q01DX009 (ip), vehicle: saline with Tween-80) was 101 % of control, the T/C (dose: 150.0 mg/kg/injection, schedule: Q01DX009 (ip), vehicle: saline with Tween-80) was 97 % of control and the T/C (dose: 300.0 mg/kg/injection, schedule: Q01DX009 (ip), vehicle: saline with Tween-80) was 92 % of control.
In the case of `C[n+]1ccc(Nc2ccc(NC(=O)c3ccc(N)cc3)cc2)cc1`, the T/C (dose: 12.5 mg/kg/injection, schedule: Q01DX009 (ip), vehicle: water) is reported as 101 % of control, the T/C (dose: 12.5 mg/kg/injection, schedule: Q04DX003 (ip), vehicle: water) is reported as 100 % of control and the T/C (dose: 25.0 mg/kg/injection, schedule: Q04DX003 (ip), vehicle: water) is reported as 98 % of control. The T/C (dose: 50.0 mg/kg/injection, schedule: Q04DX003 (ip), vehicle: water) was 100 % of control and 106 % of control, the T/C (dose: 100.0 mg/kg/injection, schedule: Q01DX009 (ip), vehicle: water) was 155 % of control and the T/C (dose: 100.0 mg/kg/injection, schedule: Q04DX003 (ip), vehicle: water) was 116 % of control and 117 % of control. The T/C (dose: 200.0 mg/kg/injection, schedule: Q01DX009 (ip), vehicle: water) was 154 % of control, the T/C (dose: 400.0 mg/kg/injection, schedule: Q01DX009 (ip), vehicle: water) was 180 % of control and the T/C (dose: 500.0 mg/kg/injection, schedule: Q04DX003 (ip), vehicle: water) was 123 % of control. For the same molecule, the T/C (dose: 600.0 mg/kg/injection, schedule: Q04DX003 (ip), vehicle: water) was 103 % of control.
`C=C(C)C12OC3(c4ccccc4)OC1C1C4OC4(CO)C(O)C4(O)C(=O)C(C)=CC4C1(O3)C(C)C2OC(=O)/C=C/C=C/CCCCC` (configuration not stated) was tested, and the T/C (dose: 6.3 micrograms/kg/injection, schedule: Q## X009 (ip), vehicle: saline + alcohol) was 107 % of control, the T/C (dose: 12.5 micrograms/kg/injection, schedule: Q## X009 (ip), vehicle: saline + alcohol) was 103 % of control and the T/C (dose: 25.0 micrograms/kg/injection, schedule: Q## X009 (ip), vehicle: saline + alcohol) was 103 % of control. The T/C (dose: 200.0 micrograms/kg/injection, schedule: Q## X009 (ip), vehicle: saline + alcohol) was 106 % of control.
With `CS(=O)(=O)c1nc(N)nc2nc[nH]c12` the T/C (dose: 75.0 mg/kg/injection, schedule: Q04DX003 (ip), vehicle: saline) was 104 % of control, the T/C [12] was 115 % of control and the T/C (dose: 150.0 mg/kg/injection, schedule: Q04DX003 (ip), vehicle: saline) was 100 % of control. The T/C (dose: 200.0 mg/kg/injection, schedule: Q01DX009 (ip), vehicle: saline) was 105 % of control and the T/C (dose: 300.0 mg/kg/injection, schedule: Q04DX003 (ip), vehicle: saline) was 109 % of control.
`COc1ccccc1C(=O)NN` was tested, and the T/C (dose: 6.25 mg/kg/injection, schedule: Q04DX003 (ip), vehicle: saline) was 100 % of control, the T/C (dose: 12.5 mg/kg/injection, schedule: Q04DX003 (ip), vehicle: saline) was 110 % of control and the T/C (dose: 25.0 mg/kg/injection, schedule: Q04DX003 (ip), vehicle: saline) was 105 % of control.
With `O=[N+]([O-])c1cc([N+](=O)[O-])c(Nn2c3ccccc3c3ccccc32)c([N+](=O)[O-])c1` the T/C (dose: 6.25 mg/kg/injection, schedule: Q01DX009 (ip), vehicle: Klucel (hydroxypropylcellulose) (HPC)) was 100 % of control, the T/C [9] was 90 % of control and 100 % of control and the T/C [10] was 100 % of control and 110 % of control. The T/C [11] was 120 % of control, the T/C [14] was 100 % of control and the T/C [15] was 100 % of control. The T/C [16] was 95 % of control and the T/C [17] was 113 % of control.
`COc1ccc(/C=C/c2c[n+]([O-])ccc2[N+](=O)[O-])cc1` was tested, and the T/C [13] was 105 % of control, the T/C [4] was 109 % of control and the T/C [5] was 119 % of control.
For `CC(CO)(CI)[n+]1ccccc1` (configuration not stated), the T/C (dose: 25.0 mg/kg/injection, schedule: Q01DX009 (ip), vehicle: saline with Tween-80) was 103 % of control, the T/C [13] was 107 % of control and the T/C (dose: 50.0 mg/kg/injection, schedule: Q04DX003 (ip), vehicle: saline with Tween-80) was 95 % of control. For the same molecule, the T/C [1] was 100 % of control.
`CCCCCCCCCCN(CCCCCCCCCC)C1CC(OC2CC(O)(C(C)=O)Cc3c(O)c4c(c(O)c32)C(=O)c2c(OC)cccc2C4=O)OC(C)C1O` (configuration not stated) was tested, and the T/C (dose: 37.5 mg/kg/injection, schedule: Q04DX003 (ip), vehicle: other) was 99 % of control, the T/C (dose: 75.0 mg/kg/injection, schedule: Q04DX003 (ip), vehicle: other) was 103 % of control and the T/C (dose: 150.0 mg/kg/injection, schedule: Q04DX003 (ip), vehicle: other) was 94 % of control. For the same molecule, the T/C (dose: 300.0 mg/kg/injection, schedule: Q04DX003 (ip), vehicle: other) was 99 % of control and the T/C (dose: 400.0 mg/kg/injection, schedule: Q04DX003 (ip), vehicle: other) was 90 % of control.
